Patent publication US20070026478A1, “Hemiasterlin affinity probes and their uses” (WYETH, priority 2002, published 2007)
Read-outs that look alike come from different tables or passages of the source.

Key:
bovine MAP-rich tubulin = target: T1, bovine MAP-rich tubulin (Bos taurus, UniProt P81947+Q6B856); test: Tubulin polymerization assay in a cell-free system; type: biochemical; settings: 0.3 μM compound
T1 construct: MAP-rich bovine brain tubulin (99% purity), Hela cell tubulin (90% purity); purchased Cytoskeleton (Denver, Colo.); host or cells: bovine brain
T1 sequence (P81947 whole entry): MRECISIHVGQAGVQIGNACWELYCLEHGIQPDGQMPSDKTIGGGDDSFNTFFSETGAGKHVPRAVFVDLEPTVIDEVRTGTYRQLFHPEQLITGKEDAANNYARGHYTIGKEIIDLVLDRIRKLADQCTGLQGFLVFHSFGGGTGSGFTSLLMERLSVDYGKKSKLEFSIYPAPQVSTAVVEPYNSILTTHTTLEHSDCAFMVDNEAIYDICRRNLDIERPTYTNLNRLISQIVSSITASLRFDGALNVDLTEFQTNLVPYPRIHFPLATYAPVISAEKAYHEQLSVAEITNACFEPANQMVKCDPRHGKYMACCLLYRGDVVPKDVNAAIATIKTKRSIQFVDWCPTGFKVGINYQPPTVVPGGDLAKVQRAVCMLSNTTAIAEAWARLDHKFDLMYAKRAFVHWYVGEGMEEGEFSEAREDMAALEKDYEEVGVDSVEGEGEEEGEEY
T1 sequence (Q6B856 whole entry): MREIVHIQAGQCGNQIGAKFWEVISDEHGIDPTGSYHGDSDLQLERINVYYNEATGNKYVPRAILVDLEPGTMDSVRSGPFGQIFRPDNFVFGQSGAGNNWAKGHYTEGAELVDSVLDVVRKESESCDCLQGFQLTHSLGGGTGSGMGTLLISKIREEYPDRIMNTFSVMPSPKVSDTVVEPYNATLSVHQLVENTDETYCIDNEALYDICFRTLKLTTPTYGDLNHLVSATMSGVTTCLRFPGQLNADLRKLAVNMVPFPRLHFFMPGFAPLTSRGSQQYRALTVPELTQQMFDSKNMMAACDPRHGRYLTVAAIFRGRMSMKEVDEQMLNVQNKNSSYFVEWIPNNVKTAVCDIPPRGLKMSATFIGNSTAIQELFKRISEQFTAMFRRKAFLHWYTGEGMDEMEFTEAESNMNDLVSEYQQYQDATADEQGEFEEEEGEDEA
Description: In vitro tubulin polymerization assays were performed according to procedures that have been described elsewhere (Loganzo et al., Cancer Res. 2003, 63:1838-1845). Briefly, bovine MAP-rich tubulin (final concentration 1.5 mg/mL) was dissolved in cold PEM buffer containing 1 mM GTP (GPEM) and centrifuged at 12,000×g for 10 minutes at 4° C. The tubulin solution (100 μL/well) was added rapidly to wells of a low-volume, 96-well plate already containing duplicate aliquots (10 μL) of test compounds in GPEM. Final compound concentrations were 0.3 μM. Control wells contained the same final concentration of DMSO (0.3%). After initiation of the reaction, absorbance at 340 nm was measured every minute for 60 minutes at 24° C. using a SpectraMax Plus plate reader (Molecular Devices, Sunnyvale, Calif.). An increase in absorbance over time indicated an increase in turbidity resulting from tubulin polymerization.

bovine brain tubulin = target: T2, bovine brain tubulin (Bos taurus, UniProt P81947+Q6B856); test: Reversible binding affinity assay (tubulin fluorescence)
T2 construct: MAP-rich bovine brain tubulin (99% purity), Hela cell tubulin (90% purity); purchased Cytoskeleton (Denver, Colo.); host or cells: bovine brain
T2 sequence (P81947 whole entry): as the sequence (P81947 whole entry) above
T2 sequence (Q6B856 whole entry): as the sequence (Q6B856 whole entry) above
Description: The affinity of both HTI-286 and of non-radiolabled Probe 1 and Probe 2, to bovine brain tubulin was determined by previously published methods (Krishnamurthy et al., Biochem., submitted). Briefly, 5 mg/mL […] tubulin prepared in PEM buffer was pre-incubated with buffer or varying concentrations of test agents in individual quartz cuvettes. The intrinsic tryptophan fluorescence of tubulin (excitation at 560 nm and maximal emission at 580 nm) was measured after pre-incubation for 90 minutes. The change in fluorescence intensity at 580 nm in the presence of compound was fitted to a quadratic equation to obtain apparent dissociation constants (KD) of the test agents.

## CN[C@H](C(=O)N[C@H](C(=O)N(C)[C@H](/C=C(\C)C(=O)O)C(C)C)C(C)(C)C)C(C)(C)c1ccc(C(=O)c2ccccc2)cc1 [Probe 1, 4-benzoyl-N,β,β-trimethyl-L-phenylalanyl-N^1-[(1S,2E)-3-carboxy-1-isopropylbut-2-enyl]-N^1,3-dimethyl-L-valinamide]
Bovine MAP-rich tubulin
  inhibition at 0.3 µM: 88%
Bovine brain tubulin; Table 1, binding to bovine brain tubulin, read-out: KD
  Kd: 200 to 800 nM
Bovine brain tubulin; rhodamine-labeled tubulin, 90 minutes pre-incubation, read-out: apparent binding constant (KD), fluorescence method
  Kd: 500 nM
